Measured values from the NIST ThermoML archive (doi:10.1016/j.tca.2004.08.001).

Key:
[1] = 101.33 kPa, Liquid; for speed of sound: Linear variable-path acoustic interferometer
[2] = refractive index (Na D-line) (dimensionless); conditions: 101.33 kPa, Liquid, Standard Abbe refractometry
[3] = xn = mol fraction of the nth substance listed; conditions: 303.15 K, 101.3 kPa, Liquid; for speed of sound: Linear variable-path acoustic interferometer
[4] = refractive index (Na D-line) (dimensionless); xn = mol fraction of the nth substance listed; conditions: 303.15 K, 101.3 kPa, Liquid, Standard Abbe refractometry

ClC(Cl)C(Cl)Cl [1,1,2,2-tetrachloroethane]
303.15 K
Conditions | mass density [kg/m3] | refractive index | speed of sound [m/s] | viscosity [mPa·s]
[1] | 1578.6 | – | 1135 | 1.457
[2] | – | 1.4881 | – | –

ClC(Cl)C(Cl)Cl [1,1,2,2-tetrachloroethane] + C1CCOC1
Conditions | mass density, [3] [kg/m3] | refractive index, [4] | speed of sound, [3] [m/s] | viscosity, [3] [mPa·s]
x2 = 0.1023 | 1523.21 | 1.483 | 1138 | 1.389
x2 = 0.2128 | 1460.02 | 1.476 | 1143 | 1.307
x2 = 0.3093 | 1401.59 | 1.4701 | 1149 | 1.227
x2 = 0.4056 | 1340.18 | 1.4639 | 1157 | 1.136
x2 = 0.5093 | 1270.31 | 1.4556 | 1168 | 1.029
x2 = 0.6032 | 1203.28 | 1.4472 | 1180 | 0.9116
x2 = 0.7046 | 1126.91 | 1.4368 | 1195 | 0.786
x2 = 0.8008 | 1050.12 | 1.4268 | 1212 | 0.6647
x2 = 0.8973 | 968.58 | 1.416 | 1231 | 0.5519

CCCCCCBr [1-bromohexane]
Conditions | mass density, [1] [kg/m3] | refractive index, [2] | speed of sound, [1] [m/s] | viscosity, [1] [mPa·s]
298.15 K | 1169.62 | 1.4464 | – | –
303.15 K | 1162.67 | 1.4441 | 1075 | 0.903

CCCCCCBr [1-bromohexane] + C1CCOC1
Conditions | mass density, [3] [kg/m3] | refractive index, [4] | speed of sound, [3] [m/s] | viscosity, [3] [mPa·s]
x2 = 0.0976 | 1146.32 | 1.442 | 1087 | 0.8602
x2 = 0.3008 | 1107.3 | 1.4368 | 1119 | 0.7753
x2 = 0.4975 | 1061.2 | 1.4307 | 1154 | 0.6995
x2 = 0.696 | 1002.92 | 1.4223 | 1194 | 0.6258
x2 = 0.9 | 924.62 | 1.4105 | 1235 | 0.5054

CCCCCCCl [1-chlorohexane]
Conditions | mass density, [1] [kg/m3] | refractive index, [2] | speed of sound, [1] [m/s] | viscosity, [1] [mPa·s]
298.15 K | 873.47 | 1.4197 | – | –
303.15 K | 868.78 | 1.4168 | 1184 | 0.6544

CCCCCCCl [1-chlorohexane] + C1CCOC1
Conditions | mass density, [3] [kg/m3] | refractive index, [4] | speed of sound, [3] [m/s] | viscosity, [3] [mPa·s]
x2 = 0.1039 | 869.11 | 1.4161 | 1195 | 0.6407
x2 = 0.305 | 870.03 | 1.4142 | 1216 | 0.6046
x2 = 0.5025 | 871.36 | 1.4122 | 1233 | 0.5698
x2 = 0.7336 | 873.79 | 1.4088 | 1247 | 0.5114
x2 = 0.9013 | 875.66 | 1.4053 | 1252 | 0.4711

CCCCOC(C)=O [butyl ethanoate]
303.15 K
Conditions | mass density [kg/m3] | refractive index | speed of sound [m/s] | viscosity [mPa·s]
[1] | 870.8 | – | 1172 | 0.6453
[2] | – | 1.3896 | – | –

CCCCOC(C)=O [butyl ethanoate] + C1CCOC1
Conditions | mass density, [3] [kg/m3] | refractive index, [4] | speed of sound, [3] [m/s] | viscosity, [3] [mPa·s]
x2 = 0.1033 | 871.17 | 1.3911 | 1177 | 0.6261
x2 = 0.1989 | 871.58 | 1.3924 | 1182 | 0.6085
x2 = 0.3041 | 872.04 | 1.3941 | 1188 | 0.5892
x2 = 0.3995 | 872.51 | 1.3954 | 1194 | 0.5762
x2 = 0.4967 | 873.01 | 1.397 | 1201 | 0.5573
x2 = 0.6013 | 873.59 | 1.3979 | 1210 | 0.5346
x2 = 0.6979 | 874.18 | 1.3991 | 1219 | 0.5107
x2 = 0.7978 | 874.96 | 1.4005 | 1229 | 0.4893
x2 = 0.8999 | 875.79 | 1.4018 | 1241 | 0.4644

CCOC(C)=O [ethyl acetate]
303.15 K
Conditions | mass density [kg/m3] | refractive index | speed of sound [m/s] | viscosity [mPa·s]
[1] | 888.55 | – | 1117 | 0.4043
[2] | – | 1.3664 | – | –

COC(C)=O [methyl ethanoate]
303.15 K
Conditions | mass density [kg/m3] | refractive index | speed of sound [m/s] | viscosity [mPa·s]
[1] | 920.83 | – | 1136 | 0.343
[2] | – | 1.3567 | – | –

COC(C)=O [methyl ethanoate] + C1CCOC1
Conditions | mass density, [3] [kg/m3] | refractive index, [4] | speed of sound, [3] [m/s] | viscosity, [3] [mPa·s]
x2 = 0.1028 | 915.9 | 1.3649 | 1151 | 0.3512
x2 = 0.3022 | 906.64 | 1.3748 | 1178 | 0.3672
x2 = 0.5035 | 897.56 | 1.3847 | 1204 | 0.3841
x2 = 0.693 | 889.35 | 1.3927 | 1226 | 0.4035
x2 = 0.8918 | 881.07 | 1.4008 | 1246 | 0.4251

CCCCCOC(C)=O [pentyl ethanoate]
303.15 K
Conditions | mass density [kg/m3] | refractive index | speed of sound [m/s] | viscosity [mPa·s]
[1] | 867.2 | – | 1197 | 0.7573
[2] | – | 1.3961 | – | –

CCCCCOC(C)=O [pentyl ethanoate] + C1CCOC1
Conditions | mass density, [3] [kg/m3] | refractive index, [4] | speed of sound, [3] [m/s] | viscosity, [3] [mPa·s]
x2 = 0.1067 | 867.69 | 1.3967 | 1198 | 0.7426
x2 = 0.298 | 868.75 | 1.3978 | 1203 | 0.7005
x2 = 0.4997 | 870.25 | 1.3992 | 1212 | 0.6373
x2 = 0.6997 | 872.25 | 1.4005 | 1224 | 0.5686
x2 = 0.9027 | 875 | 1.4021 | 1242 | 0.4829

ClC(Cl)(Cl)Cl [tetrachloromethane]
303.15 K
Conditions | mass density [kg/m3] | refractive index | speed of sound [m/s] | viscosity [mPa·s]
[1] | 1574.82 | – | 905 | 0.8441
[2] | – | 1.4555 | – | –

ClC(Cl)(Cl)Cl [tetrachloromethane] + C1CCOC1
Conditions | mass density, [3] [kg/m3] | refractive index, [4] | speed of sound, [3] [m/s] | viscosity, [3] [mPa·s]
x2 = 0.1068 | 1513.72 | 1.4519 | 932 | 0.8152
x2 = 0.2017 | 1457.18 | 1.4486 | 955 | 0.788
x2 = 0.3004 | 1395.97 | 1.4451 | 982 | 0.758
x2 = 0.396 | 1334.07 | 1.4409 | 1008 | 0.721
x2 = 0.503 | 1261.58 | 1.4357 | 1042 | 0.6782
x2 = 0.6 | 1192.83 | 1.4304 | 1074 | 0.6359
x2 = 0.6923 | 1124.71 | 1.4247 | 1109 | 0.5916
x2 = 0.7949 | 1045.62 | 1.4182 | 1152 | 0.5453
x2 = 0.8889 | 969.98 | 1.4116 | 1196 | 0.4962

C1CCOC1 [tetrahydrofuran]
303.15 K
Conditions | mass density [kg/m3] | refractive index | speed of sound [m/s] | viscosity [mPa·s]
[1] | 876.7 | – | 1255 | 0.4383
[2] | – | 1.4028 | – | –

C1CCOC1 [tetrahydrofuran] + CCOC(C)=O
Conditions | mass density, [3] [kg/m3] | refractive index, [4] | speed of sound, [3] [m/s] | viscosity, [3] [mPa·s]
x1 = 0.0995 | 887.39 | 1.3707 | 1129 | 0.4078
x1 = 0.2035 | 886.11 | 1.375 | 1141 | 0.4082
x1 = 0.3016 | 884.98 | 1.3785 | 1153 | 0.4085
x1 = 0.3923 | 883.95 | 1.3821 | 1165 | 0.4091
x1 = 0.4868 | 882.82 | 1.3858 | 1177 | 0.4111
x1 = 0.5955 | 881.45 | 1.3892 | 1192 | 0.4147
x1 = 0.6973 | 880.21 | 1.3921 | 1206 | 0.4184
x1 = 0.812 | 878.89 | 1.3964 | 1224 | 0.4236
x1 = 0.9 | 877.84 | 1.3995 | 1238 | 0.4287

ClC(Cl)Cl [trichloromethane]
303.15 K
Conditions | mass density [kg/m3] | refractive index | speed of sound [m/s] | viscosity [mPa·s]
[1] | 1470.59 | – | 967 | 0.51
[2] | – | 1.441 | – | –

ClC(Cl)Cl [trichloromethane] + C1CCOC1
Conditions | mass density, [3] [kg/m3] | refractive index, [4] | speed of sound, [3] [m/s] | viscosity, [3] [mPa·s]
x2 = 0.1023 | 1410.89 | 1.438 | 986 | 0.5307
x2 = 0.2085 | 1349.01 | 1.4346 | 1006 | 0.5467
x2 = 0.3045 | 1292.84 | 1.4315 | 1024 | 0.5566
x2 = 0.4278 | 1220.11 | 1.4273 | 1051 | 0.559
x2 = 0.5003 | 1176.98 | 1.4251 | 1070 | 0.558
x2 = 0.6047 | 1114.67 | 1.421 | 1102 | 0.5445
x2 = 0.6976 | 1058.96 | 1.4168 | 1133 | 0.5245
x2 = 0.8077 | 992.59 | 1.4121 | 1174 | 0.4955
x2 = 0.8921 | 941.69 | 1.4079 | 1208 | 0.4676
